Laboratory results published in patent US20140163061A1, “Methods For Reducing Blood Pressure” (FibroGen, Inc., priority 2008, published 2014).

How the values were obtained:
[1] = tested on: human subjects with chronic kidney disease; test: Blood pressure in human CKD subjects over a 24 hour period after oral dosing, Example 5; type: in vivo
Procedure: Hypertension is a common condition in patients with chronic kidney disease. (Agarwal et al. (2005) Hypertension 46:514-520.) The effect of a compound of the present invention on blood pressure in anemic and non-anemic human subjects with advanced stage chronic kidney disease was examined. All study subjects had chronic kidney disease (CKD), defined as having a glomerular filtration rate (GFR)<59 ml/min. Some of these CKD subjects also had anemia, defined as having hemoglobin (Hb) levels<11 g/dL. Subjects were orally administered compound A or a placebo two or three times per week for four weeks. Blood pressure readings (i.e. systolic, diastolic, and mean arterial pressure) were taken at various times with a sphygmomanometer according to standard assessments. In one series of experiments, the effect of methods and medicaments of the present invention on blood pressure in anemic and non-anemic subjects with advanced stage chronic kidney disease was examined over a 24 hour period. Subjects were orally administered compound A or a placebo and blood pressure readings were taken at 1, 2, 3, 4, 6, 12, and 24 hours following treatment. […] Table 3, Table 4, and Table 5 below show hourly changes in mean arterial pressure (MAP), systolic blood pressure (SBP), and diastolic blood pressure (DBP) following oral administration of […] to human CKD subjects.

[2] = tested on: human subjects with chronic kidney disease; test: Blood pressure in human CKD subjects over a four week period, weekly readings, Example 6; type: in vivo
Procedure: Hypertension is a common condition in patients with chronic kidney disease. (Agarwal et al. (2005) Hypertension 46:514-520.) The effect of a compound of the present invention on blood pressure in anemic and non-anemic human subjects with advanced stage chronic kidney disease was examined. All study subjects had chronic kidney disease (CKD), defined as having a glomerular filtration rate (GFR)<59 ml/min. Some of these CKD subjects also had anemia, defined as having hemoglobin (Hb) levels<11 g/dL. Subjects were orally administered compound A or a placebo two or three times per week for four weeks. Blood pressure readings (i.e. systolic, diastolic, and mean arterial pressure) were taken at various times with a sphygmomanometer according to standard assessments. In another series of experiments, the effects of a medicament of the present invention on blood pressure in anemic and non-anemic subjects with chronic kidney disease were determined over a four week period. All subjects were orally administered compound A or a placebo two or three-times per week for four weeks and blood pressure readings were taken weekly. Table 6, Table 7, and Table 8 below show weekly changes in mean arterial pressure (MAP), systolic blood pressure (SBP), and diastolic blood pressure (DBP) following oral administration of compound A to human CKD subjects.

Cc1nc(C(=O)NCC(=O)O)c(O)c2ccc(Oc3ccccc3)cc12 [A, [(4-hydroxy-1-methyl-7-phenoxy-isoquinoline-3-carbonyl)-amino]-acetic acid]
Mean change from Baseline Diastolic BP (mmHg) ([1]; All Subjects, 3 hour): −5.45 mmHg | Mean change from Baseline MAP (mmHg) ([1]; All Subjects, 3 hour): −4.35 mmHg | Mean change from Baseline Systolic BP (mmHg) ([1]; All Subjects, 3 hour): −2.09 mmHg | Mean change from Baseline Diastolic BP (mmHg) ([1]; All Subjects, 4 hour): −6.36 mmHg | Mean change from Baseline MAP (mmHg) ([1]; All Subjects, 4 hour): −6.60 mmHg | Mean change from Baseline Systolic BP (mmHg) ([1]; All Subjects, 4 hour): −7.00 mmHg | Mean change from Baseline Diastolic BP (mmHg) ([1]; All Subjects, 6 hour): −7.00 mmHg | Mean change from Baseline MAP (mmHg) ([1]; All Subjects, 6 hour): −9.18 mmHg | Mean change from Baseline Systolic BP (mmHg) ([1]; All Subjects, 6 hour): −13.45 mmHg | Mean change from Baseline Diastolic BP (mmHg) ([1]; All Subjects, 12 hour): −2.55 mmHg | Mean change from Baseline MAP (mmHg) ([1]; All Subjects, 12 hour): −3.29 mmHg | Mean change from Baseline Systolic BP (mmHg) ([1]; All Subjects, 12 hour): −4.73 mmHg | Mean change from Baseline Diastolic BP (mmHg) ([1]; All Subjects, 24 hour): −1.55 mmHg | Mean change from Baseline MAP (mmHg) ([1]; All Subjects, 24 hour): −2.55 mmHg | Mean change from Baseline Systolic BP (mmHg) ([1]; All Subjects, 24 hour): −4.45 mmHg | Mean change from Baseline Diastolic BP (mmHg) ([1]; Anemic, 3 hour): −13.67 mmHg | Mean change from Baseline MAP (mmHg) ([1]; Anemic, 3 hour): −11.10 mmHg | Mean change from Baseline Systolic BP (mmHg) ([1]; Anemic, 3 hour): −6.33 mmHg | Mean change from Baseline Diastolic BP (mmHg) ([1]; Anemic, 4 hour): −12.67 mmHg | Mean change from Baseline MAP (mmHg) ([1]; Anemic, 4 hour): −14.67 mmHg | Mean change from Baseline Systolic BP (mmHg) ([1]; Anemic, 4 hour): −19.00 mmHg | Mean change from Baseline Diastolic BP (mmHg) ([1]; Anemic, 6 hour): −10.00 mmHg | Mean change from Baseline MAP (mmHg) ([1]; Anemic, 6 hour): −12.33 mmHg | Mean change from Baseline Systolic BP (mmHg) ([1]; Anemic, 6 hour): −17.33 mmHg | Mean change from Baseline Diastolic BP (mmHg) ([1]; Anemic, 12 hour): −5.00 mmHg | Mean change from Baseline MAP (mmHg) ([1]; Anemic, 12 hour): −2.00 mmHg | Mean change from Baseline Systolic BP (mmHg) ([1]; Anemic, 12 hour): 3.67 mmHg | Mean change from Baseline Diastolic BP (mmHg) ([1]; Anemic, 24 hour): −3.33 mmHg | Mean change from Baseline MAP (mmHg) ([1]; Anemic, 24 hour): −3.77 mmHg | Mean change from Baseline Systolic BP (mmHg) ([1]; Anemic, 24 hour): −5.00 mmHg | Mean change from Baseline Diastolic BP (mmHg) ([1]; Non-Anemic, 3 hour): −2.38 mmHg | Mean change from Baseline MAP (mmHg) ([1]; Non-Anemic, 3 hour): −3.81 mmHg | Mean change from Baseline Systolic BP (mmHg) ([1]; Non-Anemic, 3 hour): −0.50 mmHg | Mean change from Baseline Diastolic BP (mmHg) ([1]; Non-Anemic, 4 hour): −4.00 mmHg | Mean change from Baseline MAP (mmHg) ([1]; Non-Anemic, 4 hour): −3.58 mmHg | Mean change from Baseline Systolic BP (mmHg) ([1]; Non-Anemic, 4 hour): −2.50 mmHg | Mean change from Baseline Diastolic BP (mmHg) ([1]; Non-Anemic, 6 hour): −5.88 mmHg | Mean change from Baseline MAP (mmHg) ([1]; Non-Anemic, 6 hour): −8.00 mmHg | Mean change from Baseline Systolic BP (mmHg) ([1]; Non-Anemic, 6 hour): −12.00 mmHg | Mean change from Baseline Diastolic BP (mmHg) ([1]; Non-Anemic, 12 hour): −1.63 mmHg | Mean change from Baseline MAP (mmHg) ([1]; Non-Anemic, 12 hour): −3.78 mmHg | Mean change from Baseline Systolic BP (mmHg) ([1]; Non-Anemic, 12 hour): −7.88 mmHg | Mean change from Baseline Diastolic BP (mmHg) ([1]; Non-Anemic, 24 hour): −0.88 mmHg | Mean change from Baseline MAP (mmHg) ([1]; Non-Anemic, 24 hour): −8.00 mmHg | Mean change from Baseline Systolic BP (mmHg) ([1]; Non-Anemic, 24 hour): −4.25 mmHg | blood pressure at 1 and 2 hours post dosing ([1]; all CKD subjects, oral, same with placebo, data not shown): small increases in blood pressure | Mean change from Baseline Diastolic BP (mmHg) ([2]; All Subjects, Week 1): −3.66 mmHg | Mean change from Baseline MAP (mmHg) ([2]; All Subjects, Week 1): −4.28 mmHg | Mean change from Baseline Systolic BP (mmHg) ([2]; All Subjects, Week 1): −5.45 mmHg | Mean change from Baseline Diastolic BP (mmHg) ([2]; All Subjects, Week 2): −3.37 mmHg | Mean change from Baseline MAP (mmHg) ([2]; All Subjects, Week 2): −5.44 mmHg | Mean change from Baseline Systolic BP (mmHg) ([2]; All Subjects, Week 2): −9.47 mmHg | Mean change from Baseline Diastolic BP (mmHg) ([2]; All Subjects, Week 3): −1.53 mmHg | Mean change from Baseline MAP (mmHg) ([2]; All Subjects, Week 3): −4.03 mmHg | Mean change from Baseline Systolic BP (mmHg) ([2]; All Subjects, Week 3): −8.97 mmHg | Mean change from Baseline Diastolic BP (mmHg) ([2]; All Subjects, Week 4): −1.54 mmHg | Mean change from Baseline MAP (mmHg) ([2]; All Subjects, Week 4): −2.85 mmHg | Mean change from Baseline Systolic BP (mmHg) ([2]; All Subjects, Week 4): −5.54 mmHg | Mean change from Baseline Diastolic BP (mmHg) ([2]; Anemic, Week 1): −4.43 mmHg | Mean change from Baseline MAP (mmHg) ([2]; Anemic, Week 1): −4.57 mmHg | Mean change from Baseline Systolic BP (mmHg) ([2]; Anemic, Week 1): −4.80 mmHg | Mean change from Baseline Diastolic BP (mmHg) ([2]; Anemic, Week 2): −3.77 mmHg | Mean change from Baseline MAP (mmHg) ([2]; Anemic, Week 2): −6.13 mmHg | Mean change from Baseline Systolic BP (mmHg) ([2]; Anemic, Week 2): −10.77 mmHg | Mean change from Baseline Diastolic BP (mmHg) ([2]; Anemic, Week 3): −2.50 mmHg | Mean change from Baseline MAP (mmHg) ([2]; Anemic, Week 3): −5.47 mmHg | Mean change from Baseline Systolic BP (mmHg) ([2]; Anemic, Week 3): −11.40 mmHg | Mean change from Baseline Diastolic BP (mmHg) ([2]; Anemic, Week 4): −1.13 mmHg | Mean change from Baseline MAP (mmHg) ([2]; Anemic, Week 4): −3.08 mmHg | Mean change from Baseline Systolic BP (mmHg) ([2]; Anemic, Week 4): −7.25 mmHg | Mean change from Baseline Diastolic BP (mmHg) ([2]; Non-Anemic, Week 1): −2.00 mmHg | Mean change from Baseline MAP (mmHg) ([2]; Non-Anemic, Week 1): −3.67 mmHg | Mean change from Baseline Systolic BP (mmHg) ([2]; Non-Anemic, Week 1): −6.86 mmHg | Mean change from Baseline Diastolic BP (mmHg) ([2]; Non-Anemic, Week 2): −2.50 mmHg | Mean change from Baseline MAP (mmHg) ([2]; Non-Anemic, Week 2): −3.95 mmHg | Mean change from Baseline Systolic BP (mmHg) ([2]; Non-Anemic, Week 2): −6.67 mmHg | Mean change from Baseline Diastolic BP (mmHg) ([2]; Non-Anemic, Week 3): 0.40 mmHg | Mean change from Baseline MAP (mmHg) ([2]; Non-Anemic, Week 3): −1.14 mmHg | Mean change from Baseline Systolic BP (mmHg) ([2]; Non-Anemic, Week 3): −4.10 mmHg | Mean change from Baseline Diastolic BP (mmHg) ([2]; Non-Anemic, Week 4): −2.20 mmHg | Mean change from Baseline MAP (mmHg) ([2]; Non-Anemic, Week 4): −2.48 mmHg | Mean change from Baseline Systolic BP (mmHg) ([2]; Non-Anemic, Week 4): −2.80 mmHg
